This note sets out measurements from BindingDB's records for doi:10.1021/ml3000879 (2012).

In one assay the target is Dual specificity protein kinase TTK (Homo sapiens) (UniProt P33981). Briefly: Inhibition of Mps1-mediated p38 MAPK phosphorylation after 90 mins by DELFIA assay.
As to `CCOc1nc(NCCc2ccccc2)cc(N)c1C#N`, the IC50 was determined as 3970 nM.

Turning to `CCOc1nc(Nc2ccccc2)cc(N)c1C#N`, the half-maximal inhibitory concentration (IC50) is 228 nM. Molecule `CCOc1nc(Nc2ccc(C(N)=O)cc2)cc(N)c1C#N` displayed an IC50 of 37 nM. `CCOc1nc(C(=O)NCc2ccccc2)cc(N)c1C#N` [4-Amino-5-cyano-6-ethoxy-pyridine-2-carboxylic acid benzylamide] gave an IC50 of 529 nM. With `CCOc1nc(C(=O)NCc2ccc(S(C)(=O)=O)cc2)cc(N)c1C#N` [4-amino-5-cyano-6-ethoxy-N-[(4-methanesulfonylphenyl)methyl]pyridine-2-carboxamide], half-maximal inhibition (IC50) was put at 568 nM. Take `CCOc1nc(NC(=O)Cc2ccccc2)cc(N)c1C#N` [N-(4-Amino-5-cyano-6-ethoxypyridin-2-yl)-2-phenylacetamide]: the concentration for half-maximal inhibition (IC50) was found to be 4200 nM.

Another assay shares this target. Briefly: Inhibition of FLAG-tagged Mps1 autophosphorylation in human RERF-LC-AI cells expressing Tet-suppressible promotor after 3 hrs by immunoblotting. (In general: In western blotting, separated proteins are transferred to a membrane and probed.)
`CCOc1nc(Nc2ccc(C(N)=O)cc2)cc(N)c1C#N` came in with a half-maximal inhibitory concentration (IC50) of 1800 nM.

As a reminder, the IC50 is the point on the concentration scale where inhibition reaches its midpoint. The low end stands for inhibition by little substance, the high end for a need for much substance.
